From patent US11931431B2, “PSMA-targeted radiopharmaceutical for diagnosing and treating prostate cancer” (FUTURECHEM CO., LTD, priority 2018, dated 2024)

Biological target: PSMA (Homo sapiens, UniProt Q04609)
Test: Measurement of binding capacity: competition with [^125I]30 on 22RV1 cells
Set-up: host or cells: 22RV1 human prostate cancer cells
Conditions: for IC50 / Ki / binding force / binding capacity to PSMA, in words: 22RV1 cells; for IC50 / Ki: [^125I]30 0.1 nM, 37° C., 2 hours; for IC50: read-out: IC50; for Ki: read-out: Ki value
Protocol: To confirm the binding capacity of the compounds of the present invention to PSMA, the following experiment was performed.
RPMI1640 supplemented with 1% BSA (bovine serum albumin) was used as a buffer solution.
[^125I]30 (0.1 nM) obtained in Comparative Example 1 was added to a vessel containing 22RV1 cells (5×10^4), to which the compound represented by formula 1 was loaded at 9 concentrations (1.00×10^−4˜1.00×10^−12 M), followed by stirring at 37° C. for 2 hours. Upon completion of the stirring, the vessel was washed with PBS solution (2 mL) three times, and then the radioactivity was measured using a gamma counter (2480 WIZARD2 Gamma Counter PerkinElmer Co., MA). The 50% inhibition concentration (IC50) for each compound was calculated using a GraphPad Prism program (GraphPad Software, Inc., CA)
(Maresca, K. P. et al., 2009, J. Med. Chem. 52, 347-357)

PSMA, sequence (Q04609 whole entry): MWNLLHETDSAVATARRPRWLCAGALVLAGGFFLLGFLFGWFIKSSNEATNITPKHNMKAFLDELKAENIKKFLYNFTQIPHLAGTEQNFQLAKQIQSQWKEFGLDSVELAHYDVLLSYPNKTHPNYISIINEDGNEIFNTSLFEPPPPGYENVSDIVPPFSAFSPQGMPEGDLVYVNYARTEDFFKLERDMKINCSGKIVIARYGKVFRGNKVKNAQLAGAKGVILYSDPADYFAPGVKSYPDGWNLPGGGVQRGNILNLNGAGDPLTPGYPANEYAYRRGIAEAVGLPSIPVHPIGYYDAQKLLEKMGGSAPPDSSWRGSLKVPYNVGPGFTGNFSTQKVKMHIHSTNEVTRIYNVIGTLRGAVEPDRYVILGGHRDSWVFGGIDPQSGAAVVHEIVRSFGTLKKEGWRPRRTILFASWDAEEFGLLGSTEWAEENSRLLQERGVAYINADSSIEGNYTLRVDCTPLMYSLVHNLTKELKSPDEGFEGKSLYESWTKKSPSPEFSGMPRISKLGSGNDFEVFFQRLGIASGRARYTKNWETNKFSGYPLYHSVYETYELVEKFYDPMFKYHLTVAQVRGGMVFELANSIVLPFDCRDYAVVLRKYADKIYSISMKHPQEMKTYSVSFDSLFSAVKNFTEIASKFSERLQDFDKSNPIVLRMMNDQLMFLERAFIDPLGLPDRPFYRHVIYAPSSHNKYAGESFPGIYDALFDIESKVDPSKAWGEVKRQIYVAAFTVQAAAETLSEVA

Structure (SMILES) | IC50 [nM] | Ki [nM] | binding force to PSMA, times higher than that of Ga-1a (compared with Ga-1a) | binding force / binding capacity to PSMA, in words
O=C(O)CC[C@H](NC(=O)N[C@@H](CCCCN(CCC(=O)O)C(=O)CCc1cn(CCOCCNC(=O)CN2CCN3CCN4CCN(CC2)CC(=O)[O][Ga]([O]C(=O)C3)[O]C(=O)C4)nn1)C(=O)O)C(=O)O [Ga-1d] | 75.3 ± 18.6 | 18.6 ± 4.6 | – | –
O=C(O)CC[C@H](NC(=O)N[C@@H](CCCCN(CC(=O)O)C(=O)COCCNC(=O)CN1CCN2CCN3CCN(CC1)CC(=O)[O][Ga]([O]C(=O)C2)[O]C(=O)C3)C(=O)O)C(=O)O [Ga-1i] | 69 ± 3.27 | 14.4 ± 0.68 | – | –
O=C(O)CC[C@H](NC(=O)N[C@@H](CCC(=O)N(CCOCCOCCNC(=O)CN1CCN2CCN3CCN(CC1)CC(=O)[O][Ga]([O]C(=O)C2)[O]C(=O)C3)CC(=O)O)C(=O)O)C(=O)O [Ga-1n] | 174 ± 3.87 | 32.1 ± 0.71 | – | –
O=C(O)CC[C@H](NC(=O)N[C@@H](CCCCNC(=O)NCc1cn(CCOCCNC(=O)CN2CCN3CCN4CCN(CC2)CC(=O)[O][Ga]([O]C(=O)C3)[O]C(=O)C4)nn1)C(=O)O)C(=O)O [Ga-1a] | 571 ± 136 | 69.9 ± 29.8 | about 18.6 times | relatively low binding force to PSMA

These reach a lower IC50. Values come first.

IC50 [nM] | Ki [nM] | binding force to PSMA, times higher than that of Ga-1a (compared with Ga-1a) | Structure (SMILES) | binding force / binding capacity to PSMA, in words
18.4 ± 0.35 | 5.82 ± 0.11 | – | Cc1ccc(CCCC(=O)NCCCC[C@H](NC(=O)CN2CCN3CCN4CCN(CC2)CC(=O)[O][Ga]([O]C(=O)C3)[O]C(=O)C4)C(=O)NCCOCCOCC(=O)N(CCCC[C@H](NC(=O)N[C@@H](CCC(=O)O)C(=O)O)C(=O)O)CC(=O)O)cc1 [Ga-1g] | higher binding capacity than the compound Ga-1e
63.9 ± 6.09 | 12.7 ± 1.07 | – | O=C(O)CC[C@H](NC(=O)N[C@@H](CCCCN(CC(=O)O)C(=O)COCCNC(=O)[C@H](CCCCNC(=O)CCCc1ccc(I)cc1)NC(=O)CN1CCN2CCN3CCN(CC1)CC(=O)[O][Ga]([O]C(=O)C2)[O]C(=O)C3)C(=O)O)C(=O)O [Ga-1k] | –
21.2 ± 2.06 | 3.76 ± 0.37 | – | O=C(O)CC[C@H](NC(=O)N[C@@H](CCCCN(CC(=O)O)C(=O)CCc1cn(CCOCCNC(=O)CN2CCN3CCN4CCN(CC2)CC(=O)[O][Ga]([O]C(=O)C3)[O]C(=O)C4)nn1)C(=O)O)C(=O)O [Ga-1c] | –
